Patent US20250099434A1, “METHODS OF TREATING AMYLOID RELATED BRAIN DISORDERS USING NOVEL COMPOUNDS AND ANTIBODIES” (T3D Therapeutics, Inc., priority 2022, published 2025)

Experiments:
[1] = molecular target: T1, human PPARδ (Homo sapiens, UniProt Q03181); test: Human PPAR activation, transient transfection in CV-1 cells (δ subtype); type: cell-based
T1 construct: expressed in transfected cells; host or cells: CV-1 cells
T1 sequence (Q03181 1-441): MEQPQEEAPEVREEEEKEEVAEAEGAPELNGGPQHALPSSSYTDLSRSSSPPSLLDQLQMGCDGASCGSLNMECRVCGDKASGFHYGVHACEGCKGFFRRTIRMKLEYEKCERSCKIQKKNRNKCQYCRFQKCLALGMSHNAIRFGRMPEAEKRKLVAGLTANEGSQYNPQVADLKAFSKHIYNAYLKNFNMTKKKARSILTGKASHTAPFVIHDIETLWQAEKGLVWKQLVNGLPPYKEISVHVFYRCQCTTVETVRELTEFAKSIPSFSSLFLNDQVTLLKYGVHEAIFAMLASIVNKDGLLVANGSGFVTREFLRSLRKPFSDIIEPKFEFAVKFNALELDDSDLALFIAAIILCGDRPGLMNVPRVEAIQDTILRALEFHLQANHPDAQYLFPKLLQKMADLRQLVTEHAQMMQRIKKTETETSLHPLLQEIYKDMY

[2] = molecular target: T2, human PPARα (Homo sapiens, UniProt Q07869); test: Human PPAR activation, transient transfection in CV-1 cells (alpha subtype); type: cell-based
T2 construct: expressed in transfected cells; host or cells: CV-1 cells
T2 sequence (Q07869 1-468): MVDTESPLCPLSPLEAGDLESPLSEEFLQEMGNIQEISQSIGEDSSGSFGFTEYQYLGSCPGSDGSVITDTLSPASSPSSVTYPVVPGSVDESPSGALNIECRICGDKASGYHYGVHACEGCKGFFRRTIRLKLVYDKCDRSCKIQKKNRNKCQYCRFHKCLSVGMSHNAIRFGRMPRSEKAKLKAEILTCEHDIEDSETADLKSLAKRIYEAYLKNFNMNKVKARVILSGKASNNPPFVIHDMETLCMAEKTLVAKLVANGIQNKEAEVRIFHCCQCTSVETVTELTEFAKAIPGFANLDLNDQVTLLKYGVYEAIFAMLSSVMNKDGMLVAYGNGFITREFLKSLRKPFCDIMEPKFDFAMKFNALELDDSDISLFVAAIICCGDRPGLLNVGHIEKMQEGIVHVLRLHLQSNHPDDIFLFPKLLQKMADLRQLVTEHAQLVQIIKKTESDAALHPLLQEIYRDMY
Source text: PPAR receptor agonist activity may be determined by conventional screening methods known to the skilled in the art. For example, methods described in U.S. Patent Application Publication No. 2007/0054907, 2008/0262047 and U.S. Pat. No. 7,314,879, which are incorporated by reference in their entireties.
The table summarize the results of studies performed in transfected CV-1 cells with three different lots of Compound of Example 11. […].

With `CCc1oc(-c2ccc(OC)cc2)nc1CCOc1ccc2c(c1)CC[C@H]2CC(=O)[O-].[Na+]` [Example 11, Sodium (S)-2-(5-(2-(5-ethyl-2-(4-methoxyphenyl)oxazol-4-yl)ethoxy)-2,3-dihydro-1H-inden-1-yl)acetate] the “Peak effect PPARδ” value [1] was 17.68, the “greater potency in activating human PPARδ subtype over human PPARγ subtype” value [1] was 15 fold and the “Peak effect PPARα” value [2] was 1.87. The “maximal response, human alpha subtype” value [2] was “significantly reduced maximal response”.
